What is called EC50 is the concentration needed to bring the measured effect to its halfway point. One may read the IC50 as the concentration needed to halve the response being measured. The low end stands for greater potency, the high end for weaker potency.

Consider 2 compounds from ChEMBL document CHEMBL3352625, “Development of novel neurokinin 3 receptor (NK3R) selective agonists with resistance to proteolytic degradation” (J Med Chem, 2014).

Molecules are shown by their SMILES. Where a SMILES comes first, the peptide text is derived from it. [ ]: non-standard residue; d: D form. NMeF = CN[C@@H](Cc1ccccc1)C(=O)O

In series [1] the target is T1, Neuromedin-K receptor (Homo sapiens, UniProt P29371).
T1 sequence (P29371 whole entry): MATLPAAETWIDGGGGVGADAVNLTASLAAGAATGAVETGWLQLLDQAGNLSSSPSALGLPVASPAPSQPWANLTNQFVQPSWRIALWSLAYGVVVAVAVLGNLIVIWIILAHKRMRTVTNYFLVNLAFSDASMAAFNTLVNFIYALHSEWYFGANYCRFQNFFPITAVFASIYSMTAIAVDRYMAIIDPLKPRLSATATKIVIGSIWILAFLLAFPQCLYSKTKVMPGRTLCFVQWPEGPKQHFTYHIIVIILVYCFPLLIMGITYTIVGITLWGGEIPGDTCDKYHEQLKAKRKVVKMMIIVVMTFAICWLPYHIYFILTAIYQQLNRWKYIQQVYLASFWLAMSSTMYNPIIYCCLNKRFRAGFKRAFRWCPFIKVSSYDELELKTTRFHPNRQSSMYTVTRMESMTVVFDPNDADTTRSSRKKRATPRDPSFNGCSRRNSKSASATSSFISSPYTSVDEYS
As to the kind of experiment: Agonist activity at human NK3R expressed in CHO cells assessed as induction of Ca2+ influx […]. Format: functional, cell-based.

The nature of series [2]: Drug metabolism in pig serum assessed as peptide H-Asp-Phe-Phe-MePhe-Gly-Leu-Met-NH2 formation by HPLC analysis. Format: ADME, cell-free, Sus scrofa.
Series [3] can be described thus: Drug metabolism in pig hypothalamic extract assessed as peptide H-Met-His-Asp-Phe-Phe-MePhe-Gly-Leu-Met-NH2 formation by HPLC analysis. The series is classed as ADME, Sus scrofa, Hypothalamus.
A short description of series [4]: Drug metabolism in pig serum assessed as peptide H-His-Asp-Phe-Phe-MePhe-Gly-Leu-Met-NH2 formation by HPLC analysis. Format: ADME, cell-free, Sus scrofa.
The test system of series [5] is Serum. Kind of series: Drug metabolism in cattle serum assessed as peptide H-Asp-Phe-Phe-MePhe-Gly-Leu-Met-NH2 formation by HPLC analysis. Format: ADME, cell-free, Bos taurus.
The target in series [6] is T1, Neuromedin-K receptor. As to the kind of experiment: Displacement of [125I]His3, MePhe7 from human NK3R expressed in CHO cell membranes by scintillation counting. A general note: Loss of bound radioactivity is the signal in a displacement assay; it reports binding, not function.
Series [7] in a line: Drug metabolism in pig hypothalamic extract assessed as peptide H-Phe-MePhe-Gly-Leu-Met-OH formation by HPLC analysis. The series is classed as ADME, Sus scrofa, Hypothalamus.
Series [8] is described as follows: Drug metabolism in goat serum assessed as peptide H-Asp-Phe-Phe-MePhe-Gly-Leu-Met-NH2 formation by HPLC analysis. The series is classed as ADME, cell-free, Capra hircus.
Series [9] is described as follows: Drug metabolism in pig serum assessed as peptide H-Phe-MePhe-Gly-Leu-Met-NH2 formation by HPLC analysis. The series is classed as ADME, cell-free, Sus scrofa.
Series [10] can be described thus: Drug metabolism in goat serum assessed as peptide H-His-Asp-Phe-Phe-MePhe-Gly-Leu-Met-NH2 formation by HPLC analysis. Format: ADME, cell-free, Capra hircus.
Series [11] has as its system Serum. As to the kind of experiment: Drug metabolism in cattle serum assessed as peptide H-His-Asp-Phe-Phe-MePhe-Gly-Leu-Met-NH2 formation by HPLC analysis. The series is classed as ADME, cell-free, Bos taurus.
Series [12] concerns Serum. As to the kind of experiment: Drug metabolism in rat serum assessed as H-His-Asp-Phe-Phe-MePhe-Gly-Leu-Met-NH2 2 formation by HPLC analysis. The series is classed as ADME, cell-free.
A short description of series [13]: Drug metabolism in goat serum assessed as peptide H-Phe-MePhe-Gly-Leu-Met-NH2 formation by HPLC analysis. The series is classed as ADME, cell-free, Capra hircus.
The test system of series [14] is Serum. As to the kind of experiment: Drug metabolism in cattle serum assessed as peptide H-Phe-MePhe-Gly-Leu-Met-NH2 formation by HPLC analysis. Format: ADME, cell-free, Bos taurus.
Series [15] deals with Serum. Kind of series: Drug metabolism in rat serum assessed as peptide H-Phe-MePhe-Gly-Leu-Met-NH2 formation by HPLC analysis. The series is classed as ADME, cell-free.
Series [16] in a line: Drug metabolism in pig hypothalamic extract assessed as peptide H-Phe-Phe-MePhe-Gly-Leu-Met-NH2 formation by HPLC analysis. The series is classed as ADME, Sus scrofa, Hypothalamus.
The subject of series [17] is Serum. As to the kind of experiment: Drug metabolism in rat serum assessed as peptide H-Asp-Phe-Phe-MePhe-Gly-Leu-Met-NH2 formation by HPLC analysis. Format: ADME, cell-free.
Series [18] is described as follows: Drug metabolism in pig hypothalamic extract assessed as peptide H-His-Asp-Phe-Phe-MePhe-Gly-Leu-Met-NH2 formation by HPLC analysis. The series is classed as ADME, Sus scrofa, Hypothalamus.
Series [19] in a line: Drug metabolism in pig hypothalamic extract assessed as peptide H-Asp-Phe-Phe-MePhe-Gly-Leu-Met-NH2 formation by HPLC analysis. The series is classed as ADME, Sus scrofa, Hypothalamus.
The nature of series [20]: Drug metabolism in pig hypothalamic extract assessed as peptide H-Phe-MePhe-Gly-Leu-Met-NH2 formation by HPLC analysis. The series is classed as ADME, Sus scrofa, Hypothalamus.
A short description of series [21]: Drug metabolism in pig hypothalamic extract assessed as peptide H-Phe-MePhe-Gly-OH formation by HPLC analysis. Format: ADME, Sus scrofa, Hypothalamus.
Series [22] relates to Serum. Kind of series: Drug metabolism in rat serum assessed as peptide H-Phe-MePhe-Gly-Leu-Met-OH formation by HPLC analysis. Format: ADME, cell-free.
The next series has as its target NEP 24.11 (neprilysin) (Homo sapiens, UniProt P08473). As to the kind of experiment: Drug metabolism assessed as NEP 24.11 (unknown origin)-mediated degradation up to 24 hrs by HPLC analysis. Format: ADME. Particulars: NEP 24.11 (neprilysin) enzyme, read-out: Drug metabolism.
The nature of series [23]: Metabolic stability in pig serum up to 24 hrs by HPLC analysis. The series is classed as ADME, Sus scrofa.
Series [24] has as its system Serum. As to the kind of experiment: Metabolic stability in rat serum up to 24 hrs by HPLC analysis. Format: ADME, cell-free.
For series [25], the target named is T2, Neprilysin (Homo sapiens, UniProt P08473). As to the kind of experiment: Drug metabolism assessed as NEP 24.11 (unknown origin)-mediated Succinyl-Asp-Phe-MePhe-Gly-OH up to 24 hrs by HPLC analysis. The series is classed as ADME.
Series [26] is described as follows: Agonist activity at cattle NK3R. On the set-up: species or system Bos taurus.
For series [27], the target named is T2, Neprilysin. Kind of series: Drug metabolism assessed as NEP 24.11 (unknown origin)-mediated H-Leu-Met-NH2 up to 24 hrs by HPLC analysis. The series is classed as ADME.
A short description of series [28]: Metabolic stability in goat serum up to 24 hrs by HPLC analysis. The series is classed as ADME, Capra hircus.
A short description of series [29]: Metabolic stability in pig hypothalamic extract by HPLC analysis. Format: ADME, Sus scrofa, Hypothalamus.
Series [30] deals with Serum. As to the kind of experiment: Metabolic stability in cattle serum up to 24 hrs by HPLC analysis. The series is classed as ADME, Bos taurus.
The nature of series [31]: Induction of GnRH release in ovariectomized goat assessed as induction of multiple-unit activity volley measured as duration of effect at 200 nmol, iv as single dose. The series is classed as functional, Capra hircus.
The nature of series [32]: Agonist activity at goat NK3R. Also noted: species or system Capra hircus.

T2 sequence (P08473 whole entry): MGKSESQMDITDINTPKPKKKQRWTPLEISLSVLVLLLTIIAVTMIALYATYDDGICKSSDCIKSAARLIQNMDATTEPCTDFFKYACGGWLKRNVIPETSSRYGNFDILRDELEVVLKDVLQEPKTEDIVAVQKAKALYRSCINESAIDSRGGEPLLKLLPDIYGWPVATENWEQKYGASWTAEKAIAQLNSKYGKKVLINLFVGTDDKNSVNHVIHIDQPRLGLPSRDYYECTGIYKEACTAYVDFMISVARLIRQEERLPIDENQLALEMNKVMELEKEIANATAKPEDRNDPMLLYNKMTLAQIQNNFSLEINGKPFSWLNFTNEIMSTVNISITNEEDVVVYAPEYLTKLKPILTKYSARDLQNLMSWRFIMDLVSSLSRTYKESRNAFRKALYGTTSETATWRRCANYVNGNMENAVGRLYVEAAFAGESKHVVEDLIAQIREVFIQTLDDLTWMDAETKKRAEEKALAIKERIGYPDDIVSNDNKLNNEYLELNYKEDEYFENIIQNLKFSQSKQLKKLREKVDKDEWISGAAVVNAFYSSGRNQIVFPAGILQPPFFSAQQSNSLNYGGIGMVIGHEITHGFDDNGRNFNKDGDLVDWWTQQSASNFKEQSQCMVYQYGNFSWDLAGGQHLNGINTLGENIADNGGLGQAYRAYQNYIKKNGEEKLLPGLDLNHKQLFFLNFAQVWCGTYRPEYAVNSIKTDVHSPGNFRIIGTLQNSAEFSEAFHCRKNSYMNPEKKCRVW
Sequence of NEP 24.11 (neprilysin) (P08473 whole entry): as above

As for `CSCC[C@H](NC(=O)[C@H](CC(C)C)NC(=O)CNC(=O)[C@H](Cc1ccccc1)N(C)C(=O)[C@H](Cc1ccccc1)NC(=O)[C@H](Cc1ccccc1)NC(=O)[C@H](CC(=O)O)NC(=O)[C@H](Cc1cnc[nH]1)NC(=O)[C@H](CCSC)NC(=O)[C@@H](N)CC(=O)O)C(N)=O` (H-DMHDFF[NMeF]GLM-NH2), the EC50 on Neuromedin-K receptor [1] worked out at 0.064 µM. Besides, the Drug metabolism result in series [2] is listed as “metabolite_detected”; in [3], “metabolite_notdetected”; in [4] it was “metabolite_detected”; in the series on Serum [5], “metabolite_detected”; in series [7], “metabolite_detected”; in [8], “metabolite_detected”. Moreover, the Drug metabolism result (in series [9]; in series [10]; in the series with Serum [11]; in the series on Serum [12]; in [13]; in the series on Serum [14]) was “metabolite_detected” throughout. The Drug metabolism entry in the series on Serum [15] is “metabolite_detected”; in series [16], “metabolite_notdetected”; with Serum [17] it was “metabolite_detected”; in series [18], “metabolite_notdetected”; in [19] it was “metabolite_notdetected”; in series [20], “metabolite_detected”. For the same compound, the Drug metabolism entry (in series [21]; in the series with Serum [22]) was “metabolite_detected” throughout. Also, the IC50 on Neuromedin-K receptor [6] came out at 0.012 µM.
Take `CSCC[C@H](NC(=O)[C@H](CC(C)C)NC(=O)CNC(=O)[C@H](Cc1ccccc1)N(C)C(=O)[C@H](Cc1ccccc1)NC(=O)[C@H](CC(=O)O)NC(=O)CCC(=O)O)C(N)=O` [SENKTIDE]: the metabolised at 24 h at NEP 24.11 (neprilysin) is > 80%. The Stability result (in series [23]; in the series on Serum [24]; in series [28]; in series [29]; in the series on Serum [30]) was “Stable” in each case. Further, the Drug metabolism result at Neprilysin [25] and at Neprilysin [27] was “metabolite_detected” in each case. Besides, the EC50 in series [26] is 0.34 µM; in series [32], 0.012 µM. In series [31], the Time is 60.6 min.
